Assay results: US20250388592A1 (REMYND N.V., priority 2022, published 2025)

Tested on: M17_3TAU(P301L) cells
Assay: TAU-induced cytotoxicity (LDH) in the neuroblastoma tauopathy model
Format: cell-based
Conditions: Homo sapiens, 168 h, inhibition of TAU-induced toxicity, 7 days retinoic acid differentiation, LDH readout
How it was run: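 Stably transfected BE-M17 cells expressing human TAU-P301L, seeded in serum-free detection medium, then differentiated with 2.5 μM RA (added in equal volume) for 7 days at 37° C/5% CO2 to induce TAU aggregation. Cytotoxicity = supernatant LDH increase over total LDH; EC50 from dose-dependent inhibition curves.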

Compound	EC50 [nM]
Cc1ccc(CNC2CC3(C2)CC(Nc2nc(Cc4ccc(Cl)cc4)ns2)C3)c(C)c1 (centres unmarked) [Cpd B319, N-(3-(4-chlorobenzyl)-1,2,4-thiadiazol-5-yl)-N′-(2,4-dimethylbenzyl) spiro[3.3]heptane-2,6-diamine]	2.1
Clc1ccc(Cc2nsc(NC3CC4(CC(NCc5ccc6c(c5)OCO6)C4)C3)n2)cc1 (centres unmarked) [Cpd B320, N-(benzo[d][1,3]dioxol-5-ylmethyl)-N′-(3-(4-chlorobenzyl)-1,2,4-thiadiazol-5-yl) spiro[3.3]heptane-2,6-diamine]	1.4
Cc1ccc(CNC2CC3(C2)CC(Nc2nc(Cc4ccc(Cl)cc4)ns2)C3)cc1 (centres unmarked) [Cpd B321, N-(3-(4-chlorobenzyl)-1,2,4-thiadiazol-5-yl)-N′-(4-methylbenzyl) spiro[3.3]heptane-2,6-diamine]	8.6
FC(F)(F)c1ccccc1CNC1CC2(C1)CC(Nc1nc(Cc3ccc(Cl)cc3)ns1)C2 (centres unmarked) [Cpd B322, N-(3-(4-chlorobenzyl)-1,2,4-thiadiazol-5-yl)-N′-(2-(trifluoromethyl)benzyl) spiro[3.3]heptane-2,6-diamine]	2.8
Fc1cccc(CNC2CC3(C2)CC(Nc2nc(Cc4ccc(Cl)cc4)ns2)C3)c1 (centres unmarked) [Cpd B323, N-(3-(4-chlorobenzyl)-1,2,4-thiadiazol-5-yl)-N′-(3-fluorobenzyl)spiro[3.3]heptane-2,6-diamine]	2
Cc1cccc(CNC2CC3(C2)CC(Nc2nc(Cc4ccc(Cl)cc4)ns2)C3)c1 (centres unmarked) [Cpd B324, N-(3-(4-chlorobenzyl)-1,2,4-thiadiazol-5-yl)-N′-(3-methylbenzyl) spiro[3.3]heptane-2,6-diamine]	2.6
FC(F)(F)c1cccc(CNC2CC3(C2)CC(Nc2nc(Cc4ccc(Cl)cc4)ns2)C3)c1 (centres unmarked) [Cpd B325, N-(3-(4-chlorobenzyl)-1,2,4-thiadiazol-5-yl)-N′-(3-(trifluoromethyl)benzyl) spiro[3.3]heptane-2,6-diamine]	36.2
CC(=O)Nc1ccc(CNC2CC3(C2)CC(Nc2nc(Cc4ccc(Cl)cc4)ns2)C3)cc1 (centres unmarked) [Cpd B326, N-(4-((6-(3-(4-chlorobenzyl)-1,2,4-thiadiazol-5-ylamino)spiro[3.3]heptan-2-ylamino)methyl)phenyl) acetamide]	145
COc1ccc(OC)c(CNC2CC3(C2)CC(Nc2nc(Cc4ccc(Cl)cc4)ns2)C3)c1 (centres unmarked) [Cpd B327, N-(3-(4-chlorobenzyl)-1,2,4-thiadiazol-5-yl)-N′-(2,5-dimethoxybenzyl) spiro[3.3]heptane-2,6-diamine]	9.9
COc1ccccc1CCNC1CC2(C1)CC(Nc1nc(Cc3ccc(Cl)cc3)ns1)C2 (centres unmarked) [Cpd B328, N-(3-(4-chlorobenzyl)-1,2,4-thiadiazol-5-yl)-N′-(2-methoxyphenethyl) spiro[3.3]heptane-2,6-diamine]	2
Fc1cc(F)cc(CNC2CC3(C2)CC(Nc2nc(Cc4ccc(Cl)cc4)ns2)C3)c1 (centres unmarked) [Cpd B329, N-(3-(4-chlorobenzyl)-1,2,4-thiadiazol-5-yl)-N′-(3,5-difluorobenzyl) spiro[3.3]heptane-2,6-diamine]	2.3
Clc1ccc(Cc2nsc(NC3CC4(CC(NCc5cccc6c5OCO6)C4)C3)n2)cc1 (centres unmarked) [Cpd B330, N-(benzo[d][1,3]dioxol-4-ylmethyl)-N′-(3-(4-chlorobenzyl)-1,2,4-thiadiazol-5-yl) spiro[3.3]heptane-2,6-diamine]	8
CS(=O)(=O)c1ccc(CNC2CC3(C2)CC(Nc2nc(Cc4ccc(Cl)cc4)ns2)C3)cc1 (centres unmarked) [Cpd B331, N-(3-(4-chlorobenzyl)-1,2,4-thiadiazol-5-yl)-N′-(4-(methylsulfonyl)benzyl) spiro[3.3]heptane-2,6-diamine]	73.3
Clc1ccc(Cc2nsc(NC3CC4(CC(NCCc5cccc(Cl)c5)C4)C3)n2)cc1 (centres unmarked) [Cpd B332, N-(3-(4-chlorobenzyl)-1,2,4-thiadiazol-5-yl)-N′-(3-chlorophenethyl) spiro[3.3]heptane-2,6-diamine]	2
